Measured values taken from ChEMBL document CHEMBL5303573, “Mapping human microbiome drug metabolism by gut bacteria and their genes” (Nature, 2019).

Assays:
[1] = The drug is tested on Alistipes indistinctus strain: DSM22520 for biotransformation. The drug concentrations were measured before and after a 12-h incubation by liquid-chromatography-coupled mass spectrometry (LC–MS); conditions: 2 µM
[2] = The drug is tested on Clostridium symbiosum strain: ATCC14940 for biotransformation. The drug concentrations were measured before and after a 12-h incubation by liquid-chromatography-coupled mass spectrometry (LC–MS); conditions: 2 µM
[3] = bacteroides stercoris, 12 h, 2 µM
Description: The drug is tested on Bacteroides stercoris strain: ATCC43183 for biotransformation. The drug concentrations were measured before and after a 12-h incubation by liquid-chromatography-coupled mass spectrometry (LC–MS)

[4] = The drug is tested on Eubacterium ventriosum strain: ATCC27560 for biotransformation. The drug concentrations were measured before and after a 12-h incubation by liquid-chromatography-coupled mass spectrometry (LC–MS); assay type: ADME; parameters: dose 2 uM, timepoint 0 vs 12 hours; conditions: 2 µM
[5] = The drug is tested on Clostridium ramosum strain: DSM1402 for biotransformation. The drug concentrations were measured before and after a 12-h incubation by liquid-chromatography-coupled mass spectrometry (LC–MS); conditions: thomasclavelia ramosa, 2 µM
[6] = enterocloster bolteae, 12 h, 2 µM
Description: The drug is tested on Clostridium bolteae strain: ATCCBAA-613 for biotransformation. The drug concentrations were measured before and after a 12-h incubation by liquid-chromatography-coupled mass spectrometry (LC–MS)

[7] = The drug is tested on Enterobacter cancerogenus strain: ATCC35316 for biotransformation. The drug concentrations were measured before and after a 12-h incubation by liquid-chromatography-coupled mass spectrometry (LC–MS); conditions: 2 µM
[8] = The drug is tested on Bacteroides pectinophilus strain: ATCC43243 for biotransformation. The drug concentrations were measured before and after a 12-h incubation by liquid-chromatography-coupled mass spectrometry (LC–MS); conditions: 2 µM
[9] = bacteroides fragilis, 12 h, 2 µM
Description: The drug is tested on Bacteroides fragilis strain: DS-208 for biotransformation. The drug concentrations were measured before and after a 12-h incubation by liquid-chromatography-coupled mass spectrometry (LC–MS)

[10] = The drug is tested on Blautia hansenii strain: DSM20583 for biotransformation. The drug concentrations were measured before and after a 12-h incubation by liquid-chromatography-coupled mass spectrometry (LC–MS); conditions: 2 µM
[11] = The drug is tested on Bacteroides dorei strain: DSM17855 for biotransformation. The drug concentrations were measured before and after a 12-h incubation by liquid-chromatography-coupled mass spectrometry (LC–MS); conditions: phocaeicola dorei, 2 µM
[12] = anaerostipes sp., 12 h, 2 µM
Description: The drug is tested on Anaerostipes sp. strain: fecal isolate for biotransformation. The drug concentrations were measured before and after a 12-h incubation by liquid-chromatography-coupled mass spectrometry (LC–MS)

[13] = The drug is tested on Escherichia coli strain: BW25113 for biotransformation. The drug concentrations were measured before and after a 12-h incubation by liquid-chromatography-coupled mass spectrometry (LC–MS); conditions: 2 µM
[14] = The drug is tested on Bifidobacterium longum subsp. Infantis strain: CCUG52486 for biotransformation. The drug concentrations were measured before and after a 12-h incubation by liquid-chromatography-coupled mass spectrometry (LC–MS); conditions: 2 µM
[15] = The drug is tested on Clostridium asparagiforme strain: DSM15981 for biotransformation. The drug concentrations were measured before and after a 12-h incubation by liquid-chromatography-coupled mass spectrometry (LC–MS); assay type: ADME; parameters: dose 2 uM, timepoint 0 vs 12 hours; conditions: enterocloster asparagiformis, 2 µM
[16] = The drug is tested on Ruminococcus torques strain: ATCC27756 for biotransformation. The drug concentrations were measured before and after a 12-h incubation by liquid-chromatography-coupled mass spectrometry (LC–MS); assay type: ADME; parameters: dose 2 uM, timepoint 0 vs 12 hours; conditions: 2 µM
[17] = The drug is tested on Bacteroides vulgatus strain: ATCC8482 for biotransformation. The drug concentrations were measured before and after a 12-h incubation by liquid-chromatography-coupled mass spectrometry (LC–MS); conditions: phocaeicola vulgatus, 2 µM
[18] = The drug is tested on Bacteroides fragilis strain: HMW610 for biotransformation. The drug concentrations were measured before and after a 12-h incubation by liquid-chromatography-coupled mass spectrometry (LC–MS); conditions: 2 µM
[19] = bacteroides intestinalis, 12 h, 2 µM
Description: The drug is tested on Bacteroides intestinalis strain: DSM17393 for biotransformation. The drug concentrations were measured before and after a 12-h incubation by liquid-chromatography-coupled mass spectrometry (LC–MS)

[20] = The drug is tested on Parabacteroides merdae strain: ATCC43184 for biotransformation. The drug concentrations were measured before and after a 12-h incubation by liquid-chromatography-coupled mass spectrometry (LC–MS); conditions: 2 µM

For `CC(=O)OCC(=O)[C@@]1(O)[C@@H](C)C[C@H]2[C@@H]3CCC4=CC(=O)C=C[C@]4(C)[C@@]3(F)[C@@H](O)C[C@@]21C` [BETAMETHASONE ACETATE], the “Bacterial Biotransformation” value [1] was “Compound NOT metabolized”, the “Bacterial Biotransformation” value [2] was “Compound NOT metabolized” and the “Bacterial Biotransformation” value [3] was “Compound metabolized”. For the same compound, the “Bacterial Biotransformation” value [4] was “Compound NOT metabolized”, the “Bacterial Biotransformation” value [5] was “Compound NOT metabolized” and the “Bacterial Biotransformation” value [6] was “Compound NOT metabolized”. For the same compound, the “Bacterial Biotransformation” value [7] was “Compound NOT metabolized”, the “Bacterial Biotransformation” value [8] was “Compound NOT metabolized” and the “Bacterial Biotransformation” value [9] was “Compound metabolized”. For the same compound, the “Bacterial Biotransformation” value [10] was “Compound metabolized”, the “Bacterial Biotransformation” value [11] was “Compound metabolized” and the “Bacterial Biotransformation” value [12] was “Compound NOT metabolized”. The “Bacterial Biotransformation” value [13] was “Compound NOT metabolized”, the “Bacterial Biotransformation” value [14] was “Compound NOT metabolized” and the “Bacterial Biotransformation” value [15] was “Compound NOT metabolized”.
With `O=c1[nH]c2ccccc2n1C1CCN(CCCC(c2ccc(F)cc2)c2ccc(F)cc2)CC1` [PIMOZIDE] the “Bacterial Biotransformation” value [1] was “Compound NOT metabolized”, the “Bacterial Biotransformation” value [2] was “Compound NOT metabolized” and the “Bacterial Biotransformation” value [3] was “Compound NOT metabolized”. The “Bacterial Biotransformation” value [4] was “Compound NOT metabolized”, the “Bacterial Biotransformation” value [5] was “Compound NOT metabolized” and the “Bacterial Biotransformation” value [16] was “Compound NOT metabolized”. The “Bacterial Biotransformation” value [6] was “Compound NOT metabolized”, the “Bacterial Biotransformation” value [7] was “Compound NOT metabolized” and the “Bacterial Biotransformation” value [8] was “Compound NOT metabolized”. For the same compound, the “Bacterial Biotransformation” value [9] was “Compound NOT metabolized”, the “Bacterial Biotransformation” value [17] was “Compound NOT metabolized” and the “Bacterial Biotransformation” value [10] was “Compound NOT metabolized”. The “Bacterial Biotransformation” value [11] was “Compound NOT metabolized”, the “Bacterial Biotransformation” value [12] was “Compound NOT metabolized” and the “Bacterial Biotransformation” value [18] was “Compound NOT metabolized”. The “Bacterial Biotransformation” value [14] was “Compound NOT metabolized”, the “Bacterial Biotransformation” value [15] was “Compound NOT metabolized” and the “Bacterial Biotransformation” value [19] was “Compound NOT metabolized”. The “Bacterial Biotransformation” value [20] was “Compound NOT metabolized”.
With `CC(C)c1nc(N(C)S(C)(=O)=O)nc(-c2ccc(F)cc2)c1/C=C/[C@@H](O)C[C@@H](O)CC(=O)[O-].CC(C)c1nc(N(C)S(C)(=O)=O)nc(-c2ccc(F)cc2)c1/C=C/[C@@H](O)C[C@@H](O)CC(=O)[O-].[Ca+2]` [ROSUVASTATIN CALCIUM] the “Bacterial Biotransformation” value [1] was “Compound NOT metabolized”, the “Bacterial Biotransformation” value [2] was “Compound NOT metabolized” and the “Bacterial Biotransformation” value [3] was “Compound NOT metabolized”. The “Bacterial Biotransformation” value [4] was “Compound NOT metabolized”, the “Bacterial Biotransformation” value [5] was “Compound NOT metabolized” and the “Bacterial Biotransformation” value [16] was “Compound NOT metabolized”. For the same compound, the “Bacterial Biotransformation” value [6] was “Compound NOT metabolized”, the “Bacterial Biotransformation” value [7] was “Compound NOT metabolized” and the “Bacterial Biotransformation” value [8] was “Compound NOT metabolized”. The “Bacterial Biotransformation” value [9] was “Compound NOT metabolized”, the “Bacterial Biotransformation” value [17] was “Compound NOT metabolized” and the “Bacterial Biotransformation” value [10] was “Compound NOT metabolized”. The “Bacterial Biotransformation” value [11] was “Compound NOT metabolized”, the “Bacterial Biotransformation” value [12] was “Compound NOT metabolized” and the “Bacterial Biotransformation” value [13] was “Compound NOT metabolized”. The “Bacterial Biotransformation” value [14] was “Compound NOT metabolized”, the “Bacterial Biotransformation” value [15] was “Compound NOT metabolized” and the “Bacterial Biotransformation” value [19] was “Compound NOT metabolized”.
With `Cc1nc(-c2ccc(OCC(C)C)c(C#N)c2)sc1C(=O)O` [FEBUXOSTAT] the “Bacterial Biotransformation” value [1] was “Compound NOT metabolized”, the “Bacterial Biotransformation” value [2] was “Compound NOT metabolized” and the “Bacterial Biotransformation” value [3] was “Compound NOT metabolized”. For the same compound, the “Bacterial Biotransformation” value [4] was “Compound NOT metabolized”, the “Bacterial Biotransformation” value [16] was “Compound NOT metabolized” and the “Bacterial Biotransformation” value [6] was “Compound NOT metabolized”. The “Bacterial Biotransformation” value [7] was “Compound NOT metabolized”, the “Bacterial Biotransformation” value [8] was “Compound NOT metabolized” and the “Bacterial Biotransformation” value [9] was “Compound NOT metabolized”. The “Bacterial Biotransformation” value [17] was “Compound metabolized”, the “Bacterial Biotransformation” value [10] was “Compound NOT metabolized” and the “Bacterial Biotransformation” value [11] was “Compound metabolized”. The “Bacterial Biotransformation” value [12] was “Compound NOT metabolized”, the “Bacterial Biotransformation” value [13] was “Compound NOT metabolized” and the “Bacterial Biotransformation” value [18] was “Compound NOT metabolized”. For the same compound, the “Bacterial Biotransformation” value [14] was “Compound NOT metabolized”, the “Bacterial Biotransformation” value [15] was “Compound NOT metabolized” and the “Bacterial Biotransformation” value [19] was “Compound NOT metabolized”. For the same compound, the “Bacterial Biotransformation” value [20] was “Compound NOT metabolized”.
